In US20260027116A1, “Methods of Treating Chronic Graft-Versus-Host Disease Following Allogeneic Hematopoietic Stem Cell Transplantation” (Kadmon Corporation, LLC, priority 2022, published 2026):

Experiments:
CYP2C19 = CYP2C19 (Homo sapiens, UniProt P33261); experiment: enzyme inhibition in vitro; type: in vitro ADME
lung function = experiment: Example 1: percent predicted TLC change from baseline; type: in vivo, human; settings: mean (SD)
Description: Change From Baseline in Percent Predicted Total Lung Capacity (TLC) at Each Specified Time Points. TLC is the volume of air in the lungs upon the maximum effort of inspiration. Baseline value was defined as valid and last non-missing value obtained within 28 days prior to participant receiving first study medication. EOT visit was performed within 3 days after the participant's last dose of study drug. […] Analysis was performed on mITT population. Here, ‘number analyzed’=participants with available data for each specified category. Here, ‘0’ in the number analyzed field signifies that none of the participants were available for the analysis at the specified time points.

CYP2C19, sequence (P33261 whole entry): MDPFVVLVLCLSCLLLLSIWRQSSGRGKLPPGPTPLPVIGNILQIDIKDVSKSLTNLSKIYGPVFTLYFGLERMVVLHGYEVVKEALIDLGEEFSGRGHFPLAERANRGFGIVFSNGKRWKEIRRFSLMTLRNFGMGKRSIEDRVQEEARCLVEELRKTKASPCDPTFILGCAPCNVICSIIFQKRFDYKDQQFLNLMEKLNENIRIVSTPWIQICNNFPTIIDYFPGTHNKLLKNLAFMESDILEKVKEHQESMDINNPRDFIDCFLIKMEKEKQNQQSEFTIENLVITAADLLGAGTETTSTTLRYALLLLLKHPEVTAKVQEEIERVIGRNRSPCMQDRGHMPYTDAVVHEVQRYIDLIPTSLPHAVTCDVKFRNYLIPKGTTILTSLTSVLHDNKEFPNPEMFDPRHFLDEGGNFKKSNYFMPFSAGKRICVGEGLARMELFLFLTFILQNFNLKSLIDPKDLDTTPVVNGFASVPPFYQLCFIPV

CC(C)NC(=O)COc1cccc(-c2nc(Nc3ccc4[nH]ncc4c3)c3ccccc3n2)c1 [Belumosudil, 2-{3-[4-(1H-indazol-5-ylamino)-2-quinazolinyl]phenoxy}-N-(propan-2-yl) acetamide]
inhibition of CYP2C19 (CYP2C19): inhibitor | Change From Baseline in Percent Predicted Total Lung Capacity (TLC) (lung function; Cohort 1: 200 mg QD, Cycle 3, Day 1): 1.6 (11.9) Percent Predicted TLC | Change From Baseline in Percent Predicted Total Lung Capacity (TLC) (lung function; Cohort 1: 200 mg QD, Cycle 5, Day 1): −2.6 (16.8) Percent Predicted TLC | Change From Baseline in Percent Predicted Total Lung Capacity (TLC) (lung function; Cohort 1: 200 mg QD, Cycle 7, Day 1): −3.7 (6.6) Percent Predicted TLC | Change From Baseline in Percent Predicted Total Lung Capacity (TLC) (lung function; Cohort 1: 200 mg QD, Cycle 9, Day 1): −2.9 (6.1) Percent Predicted TLC | Change From Baseline in Percent Predicted Total Lung Capacity (TLC) (lung function; Cohort 1: 200 mg QD, Cycle 11, Day 1): 0.7 (4.3) Percent Predicted TLC | Change From Baseline in Percent Predicted Total Lung Capacity (TLC) (lung function; Cohort 1: 200 mg QD, Cycle 12, Day 1): −9.0 (—) Percent Predicted TLC | Change From Baseline in Percent Predicted Total Lung Capacity (TLC) (lung function; Cohort 1: 200 mg QD, Cycle 13, Day 1): −0.3 (7.1) Percent Predicted TLC | Change From Baseline in Percent Predicted Total Lung Capacity (TLC) (lung function; Cohort 1: 200 mg QD, Cycle 14, Day 1): 23.0 (—) Percent Predicted TLC | Change From Baseline in Percent Predicted Total Lung Capacity (TLC) (lung function; Cohort 1: 200 mg QD, Cycle 15, Day 1): −2.8 (10.8) Percent Predicted TLC | Change From Baseline in Percent Predicted Total Lung Capacity (TLC) (lung function; Cohort 1: 200 mg QD, Cycle 16, Day 1): −3.0 (—) Percent Predicted TLC | Change From Baseline in Percent Predicted Total Lung Capacity (TLC) (lung function; Cohort 1: 200 mg QD, Cycle 17, Day 1): −3.0 (6.2) Percent Predicted TLC | Change From Baseline in Percent Predicted Total Lung Capacity (TLC) (lung function; Cohort 1: 200 mg QD, Cycle 19, Day 1): −4.6 (6.1) Percent Predicted TLC | Change From Baseline in Percent Predicted Total Lung Capacity (TLC) (lung function; Cohort 1: 200 mg QD, Cycle 21, Day 1): 0.3 (9.3) Percent Predicted TLC | Change From Baseline in Percent Predicted Total Lung Capacity (TLC) (lung function; Cohort 1: 200 mg QD, Cycle 23, Day 1): 0.0 (8.7) Percent Predicted TLC | Change From Baseline in Percent Predicted Total Lung Capacity (TLC) (lung function; Cohort 1: 200 mg QD, Cycle 24, Day 1): 0.0 (—) Percent Predicted TLC | Change From Baseline in Percent Predicted Total Lung Capacity (TLC) (lung function; Cohort 1: 200 mg QD, Cycle 25, Day 1): −3.0 (7.1) Percent Predicted TLC | Change From Baseline in Percent Predicted Total Lung Capacity (TLC) (lung function; Cohort 1: 200 mg QD, Cycle 26, Day 1): 0.0 (—) Percent Predicted TLC | Change From Baseline in Percent Predicted Total Lung Capacity (TLC) (lung function; Cohort 1: 200 mg QD, Cycle 27, Day 1): 5.5 (16.3) Percent Predicted TLC | Change From Baseline in Percent Predicted Total Lung Capacity (TLC) (lung function; Cohort 1: 200 mg QD, Cycle 29, Day 1): −1.0 (17.0) Percent Predicted TLC | Change From Baseline in Percent Predicted Total Lung Capacity (TLC) (lung function; Cohort 1: 200 mg QD, Cycle 30, Day 1): 7.0 (—) Percent Predicted TLC | Change From Baseline in Percent Predicted Total Lung Capacity (TLC) (lung function; Cohort 1: 200 mg QD, Cycle 31, Day 1): 7.5 (17.7) Percent Predicted TLC | Change From Baseline in Percent Predicted Total Lung Capacity (TLC) (lung function; Cohort 1: 200 mg QD, Cycle 32, Day 1): 1.0 (—) Percent Predicted TLC | Change From Baseline in Percent Predicted Total Lung Capacity (TLC) (lung function; Cohort 1: 200 mg QD, Cycle 33, Day 1): 14.0 (11.3) Percent Predicted TLC | Change From Baseline in Percent Predicted Total Lung Capacity (TLC) (lung function; Cohort 1: 200 mg QD, Cycle 34, Day 1): 2.0 (—) Percent Predicted TLC | Change From Baseline in Percent Predicted Total Lung Capacity (TLC) (lung function; Cohort 1: 200 mg QD, Cycle 35, Day 1): 10.5 (7.8) Percent Predicted TLC | Change From Baseline in Percent Predicted Total Lung Capacity (TLC) (lung function; Cohort 1: 200 mg QD, Cycle 36, Day 1): 6.0 (—) Percent Predicted TLC | Change From Baseline in Percent Predicted Total Lung Capacity (TLC) (lung function; Cohort 1: 200 mg QD, Cycle 48, Day 1): −13.0 (—) Percent Predicted TLC | Change From Baseline in Percent Predicted Total Lung Capacity (TLC) (lung function; Cohort 1: 200 mg QD, Cycle 49, Day 1): 5.0 (—) Percent Predicted TLC | Change From Baseline in Percent Predicted Total Lung Capacity (TLC) (lung function; Cohort 1: 200 mg QD, Cycle 51, Day 1): 15.0 (—) Percent Predicted TLC | Change From Baseline in Percent Predicted Total Lung Capacity (TLC) (lung function; Cohort 1: 200 mg QD, Cycle 52, Day 1): 1.0 (—) Percent Predicted TLC | Change From Baseline in Percent Predicted Total Lung Capacity (TLC) (lung function; Cohort 1: 200 mg QD, Cycle 53, Day 1): 15.0 (—) Percent Predicted TLC | Change From Baseline in Percent Predicted Total Lung Capacity (TLC) (lung function; Cohort 1: 200 mg QD, Cycle 54, Day 1): 4.0 (—) Percent Predicted TLC | Change From Baseline in Percent Predicted Total Lung Capacity (TLC) (lung function; Cohort 1: 200 mg QD, Cycle 55, Day 1): 29.0 (—) Percent Predicted TLC | Change From Baseline in Percent Predicted Total Lung Capacity (TLC) (lung function; Cohort 1: 200 mg QD, Cycle 56, Day 1): 9.0 (—) Percent Predicted TLC | Change From Baseline in Percent Predicted Total Lung Capacity (TLC) (lung function; Cohort 1: 200 mg QD, Cycle 57, Day 1): 18.0 (—) Percent Predicted TLC | Change From Baseline in Percent Predicted Total Lung Capacity (TLC) (lung function; Cohort 1: 200 mg QD, Cycle 58, Day 1): 5.0 (—) Percent Predicted TLC | Change From Baseline in Percent Predicted Total Lung Capacity (TLC) (lung function; Cohort 1: 200 mg QD, Cycle 60, Day 1): −3.0 (—) Percent Predicted TLC | Change From Baseline in Percent Predicted Total Lung Capacity (TLC) (lung function; Cohort 1: 200 mg QD, Cycle 61, Day 1): 5.0 (—) Percent Predicted TLC | Change From Baseline in Percent Predicted Total Lung Capacity (TLC) (lung function; Cohort 1: 200 mg QD, Cycle 62, Day 1): −1.0 (—) Percent Predicted TLC | Change From Baseline in Percent Predicted Total Lung Capacity (TLC) (lung function; Cohort 1: 200 mg QD, Cycle 63, Day 1): 12.0 (—) Percent Predicted TLC | Change From Baseline in Percent Predicted Total Lung Capacity (TLC) (lung function; Cohort 1: 200 mg QD, Cycle 67, Day 1): 12.0 (—) Percent Predicted TLC | Change From Baseline in Percent Predicted Total Lung Capacity (TLC) (lung function; Cohort 1: 200 mg QD, EOT): 5.2 (27.5) Percent Predicted TLC | Change From Baseline in Percent Predicted Total Lung Capacity (TLC) (lung function; Cohort 2: 200 mg BID, Cycle 3, Day 1): 1.9 (8.5) Percent Predicted TLC | Change From Baseline in Percent Predicted Total Lung Capacity (TLC) (lung function; Cohort 2: 200 mg BID, Cycle 5, Day 1): −7.2 (10.5) Percent Predicted TLC | Change From Baseline in Percent Predicted Total Lung Capacity (TLC) (lung function; Cohort 2: 200 mg BID, Cycle 7, Day 1): −4.4 (6.3) Percent Predicted TLC | Change From Baseline in Percent Predicted Total Lung Capacity (TLC) (lung function; Cohort 2: 200 mg BID, Cycle 8, Day 1): −5.0 (—) Percent Predicted TLC | Change From Baseline in Percent Predicted Total Lung Capacity (TLC) (lung function; Cohort 2: 200 mg BID, Cycle 9, Day 1): −6.0 (8.5) Percent Predicted TLC | Change From Baseline in Percent Predicted Total Lung Capacity (TLC) (lung function; Cohort 2: 200 mg BID, Cycle 10, Day 1): −18.5 (6.4) Percent Predicted TLC | Change From Baseline in Percent Predicted Total Lung Capacity (TLC) (lung function; Cohort 2: 200 mg BID, Cycle 11, Day 1): −5.2 (11.2) Percent Predicted TLC
